According to ChEMBL document CHEMBL5584267, “Discovery of the first selective, small-molecule GFRα2/3 inhibitors through DNA-encoded library technology” (Bioorg Med Chem Lett, 2024):

What was measured:
[1] = molecular target: T1, GDNF family receptor alpha-1 (Homo sapiens) (UniProt P56159); experiment: Inhibition of GFRalpha1 (unknown origin) assessed as maximal efficacy relative to control
T1 sequence (whole entry): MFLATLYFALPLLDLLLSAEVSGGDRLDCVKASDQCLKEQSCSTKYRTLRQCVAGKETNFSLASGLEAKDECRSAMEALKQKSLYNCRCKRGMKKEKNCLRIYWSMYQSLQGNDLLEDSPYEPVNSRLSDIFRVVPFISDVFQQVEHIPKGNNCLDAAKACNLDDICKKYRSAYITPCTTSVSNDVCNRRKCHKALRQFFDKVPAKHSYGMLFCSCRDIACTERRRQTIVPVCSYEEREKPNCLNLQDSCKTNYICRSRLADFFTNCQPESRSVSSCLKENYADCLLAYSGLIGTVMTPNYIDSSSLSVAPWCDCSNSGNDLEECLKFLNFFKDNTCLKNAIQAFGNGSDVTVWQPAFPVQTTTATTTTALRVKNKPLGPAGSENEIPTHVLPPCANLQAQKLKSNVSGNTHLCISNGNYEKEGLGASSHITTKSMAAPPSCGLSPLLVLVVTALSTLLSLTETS

[2] = molecular target: T2, GDNF family receptor alpha-1 (Homo sapiens, UniProt P56159); experiment: Inhibition of GFRalpha1 (unknown origin)
T2 sequence (P56159 whole entry): T1 sequence (whole entry)

[3] = molecular target: T3, GDNF family receptor alpha-3 (Homo sapiens) (UniProt O60609); experiment: Inhibition of GFRalpha3 (unknown origin) assessed as maximal efficacy relative to control
T3 sequence (whole entry): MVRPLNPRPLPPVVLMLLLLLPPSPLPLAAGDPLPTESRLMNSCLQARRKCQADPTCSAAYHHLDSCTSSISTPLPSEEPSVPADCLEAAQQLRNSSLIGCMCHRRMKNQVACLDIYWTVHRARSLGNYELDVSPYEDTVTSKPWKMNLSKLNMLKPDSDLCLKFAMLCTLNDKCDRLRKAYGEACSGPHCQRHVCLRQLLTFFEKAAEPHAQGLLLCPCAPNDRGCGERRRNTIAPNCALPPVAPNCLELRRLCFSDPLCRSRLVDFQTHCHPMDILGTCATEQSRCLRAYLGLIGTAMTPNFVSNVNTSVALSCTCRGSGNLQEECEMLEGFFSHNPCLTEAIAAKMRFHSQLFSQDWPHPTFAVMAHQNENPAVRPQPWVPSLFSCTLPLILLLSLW

[4] = molecular target: T4, Proto-oncogene tyrosine-protein kinase receptor Ret (Homo sapiens, UniProt P07949); experiment: Inhibition of RET (unknown origin) assessed as maximal efficacy relative to control
[5] = molecular target: T5, GDNF family receptor alpha-2 (Homo sapiens, UniProt O00451); experiment: Inhibition of GFRalpha2 (unknown origin)
T5 sequence (O00451 whole entry): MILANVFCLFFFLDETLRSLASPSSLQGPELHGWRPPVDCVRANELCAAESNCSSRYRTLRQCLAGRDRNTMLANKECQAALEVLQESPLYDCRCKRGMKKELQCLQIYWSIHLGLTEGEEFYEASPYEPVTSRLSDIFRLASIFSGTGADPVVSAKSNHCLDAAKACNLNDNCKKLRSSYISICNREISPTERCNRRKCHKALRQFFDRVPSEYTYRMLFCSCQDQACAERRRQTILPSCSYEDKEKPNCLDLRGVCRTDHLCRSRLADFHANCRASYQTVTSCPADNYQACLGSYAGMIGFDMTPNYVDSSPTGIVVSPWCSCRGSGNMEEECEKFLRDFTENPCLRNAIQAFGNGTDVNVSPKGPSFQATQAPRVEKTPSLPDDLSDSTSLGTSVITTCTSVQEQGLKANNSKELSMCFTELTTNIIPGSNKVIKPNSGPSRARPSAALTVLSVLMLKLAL

[6] = molecular target: T6, GDNF family receptor alpha-3 (Homo sapiens, UniProt O60609); experiment: Inhibition of GFRalpha3 (unknown origin)
T6 sequence (O60609 whole entry): T3 sequence (whole entry)

[7] = molecular target: T4, Proto-oncogene tyrosine-protein kinase receptor Ret; experiment: Inhibition of RET (unknown origin)
[8] = molecular target: T7, GDNF family receptor alpha-2 (Homo sapiens) (UniProt O00451); experiment: Inhibition of GFRalpha2 (unknown origin) assessed as maximal efficacy relative to control
T7 sequence (whole entry): T5 sequence (O00451 whole entry)

T4 sequence (P07949 whole entry): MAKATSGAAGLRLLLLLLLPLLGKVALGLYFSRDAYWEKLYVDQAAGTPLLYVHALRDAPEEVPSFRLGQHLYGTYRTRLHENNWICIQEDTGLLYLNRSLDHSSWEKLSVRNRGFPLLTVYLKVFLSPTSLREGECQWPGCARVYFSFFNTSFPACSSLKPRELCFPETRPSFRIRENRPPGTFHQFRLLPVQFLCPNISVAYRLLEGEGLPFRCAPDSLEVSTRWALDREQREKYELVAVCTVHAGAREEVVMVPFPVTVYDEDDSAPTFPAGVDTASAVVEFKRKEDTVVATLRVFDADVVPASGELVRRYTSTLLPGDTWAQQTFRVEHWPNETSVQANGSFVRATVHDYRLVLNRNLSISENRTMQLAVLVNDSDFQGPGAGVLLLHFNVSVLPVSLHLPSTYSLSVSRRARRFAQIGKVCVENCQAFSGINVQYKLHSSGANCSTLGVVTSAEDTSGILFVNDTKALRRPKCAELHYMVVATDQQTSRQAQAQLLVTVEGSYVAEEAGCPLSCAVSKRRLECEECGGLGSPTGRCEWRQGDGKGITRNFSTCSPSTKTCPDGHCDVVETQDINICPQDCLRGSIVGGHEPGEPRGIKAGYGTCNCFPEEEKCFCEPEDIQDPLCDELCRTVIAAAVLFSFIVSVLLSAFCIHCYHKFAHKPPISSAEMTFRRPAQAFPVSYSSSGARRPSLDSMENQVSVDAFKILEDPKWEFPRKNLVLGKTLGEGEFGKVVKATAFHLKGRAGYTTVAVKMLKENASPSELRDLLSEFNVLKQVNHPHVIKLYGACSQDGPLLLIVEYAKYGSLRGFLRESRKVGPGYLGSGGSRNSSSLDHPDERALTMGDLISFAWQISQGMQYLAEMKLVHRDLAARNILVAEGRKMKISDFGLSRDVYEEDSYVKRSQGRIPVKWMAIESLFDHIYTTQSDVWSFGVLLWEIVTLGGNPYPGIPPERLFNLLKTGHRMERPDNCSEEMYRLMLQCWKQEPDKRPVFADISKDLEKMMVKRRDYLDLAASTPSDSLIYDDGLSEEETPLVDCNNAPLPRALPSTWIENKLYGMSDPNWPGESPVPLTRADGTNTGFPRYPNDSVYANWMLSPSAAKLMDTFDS

SMILES | Emax [1] [%] | IC50 [2] [µM] | Emax [3] [%] | Emax [4] [%] | IC50 [5] [µM] | IC50 [6] [µM] | IC50 [7] [µM] | Emax [8] [%]
CNC(=O)[C@H](NC(=O)Cc1cccc(O[C@H]2CCc3ccccc32)c1)C1CCCCC1 | 0 | > 100 | 66 | 0 | 9.9 | 9.1 | > 100 | 66
NC(=O)[C@H](NC(=O)Cc1cccc(O[C@H]2CCc3cc(-c4ncc(Nc5ccccc5)cn4)ccc32)c1)C1CCCCC1 | 79 | 1 | 100 | 68 | 2.5 | 1.1 | 0.8 | 69
COC(=O)[C@H](Cc1cnc[nH]1)NC(=O)Cc1cccc(O[C@H]2CCc3cc(-c4cncc(Oc5ccccc5)c4)ccc32)c1 | 0 | > 100 | 100 | 0 | > 100 | 7.4 | > 100 | 0
CNC(=O)[C@H](NC(=O)Cc1cccc(Oc2cnc(Nc3ccccc3)nc2)c1)C1CCCCC1 | 0 | > 100 | 0 | 0 | > 100 | > 100 | > 100 | 0
CNC(=O)[C@H](NC(=O)Cc1cccc(O[C@H]2CCc3cc(-c4cncc(Oc5ccccc5)c4)ccc32)c1)C1CCCCC1 | 0 | > 100 | 100 | 0 | 18 | 26 | > 100 | 100
CNC(=O)[C@H](NC(=O)Cc1cccc(O[C@H]2CCc3cc(-c4cnc(Nc5cncnc5)nc4)ccc32)c1)C1CCCCC1 | 0 | > 100 | 0 | 0 | > 100 | > 100 | > 100 | 0
CNC(=O)[C@H](NC(=O)Cc1cccc(O[C@H]2CCc3cc(-c4cncnc4)ccc32)c1)C1CCCCC1 | 0 | > 100 | 0 | 100 | > 100 | > 100 | 0.9 | 0

More lines, now with the values ahead:

Emax [1] [%] | IC50 [2] [µM] | Emax [3] [%] | Emax [4] [%] | IC50 [5] [µM] | IC50 [6] [µM] | IC50 [7] [µM] | Emax [8] [%] | SMILES
0 | > 100 | 70 | 65 | 3.7 | 5.4 | 1.1 | 46 | CNC(=O)[C@H](Cc1c[nH]cn1)NC(=O)Cc1cccc(O[C@H]2CCc3cc(-c4cnc(Nc5ccccc5)nc4)ccc32)c1
86 | 0.25 | 100 | 0 | 0.1 | 0.2 | > 100 | 100 | CNC(=O)[C@H](NC(=O)Cc1cccc(O[C@@H]2Cc3ccc(-c4cnc(Nc5ccccc5)nc4)cc3C2)c1)C1CCCCC1 (racemic)
97 | 29.9 | 100 | 0 | > 100 | 13.4 | > 100 | 0 | CNC(=O)[C@@H](Cc1c[nH]cn1)NC(=O)Cc1cccc(O[C@H]2CCc3cc(-c4cnc(Nc5ccccc5)nc4)ccc32)c1
0 | > 100 | 0 | 0 | > 100 | > 100 | > 100 | 0 | NC(=O)Cc1cccc(O[C@H]2CCc3cc(-c4cnc(Nc5ccccc5)nc4)ccc32)c1
0 | > 100 | 59 | 93 | > 100 | 2.8 | 2.3 | 0 | O=C(O)Cc1cccc(O[C@H]2CCc3cc(-c4cnc(Nc5ccccc5)nc4)ccc32)c1
0 | > 100 | 0 | 0 | > 100 | > 100 | > 100 | 0 | CO[C@H]1CCc2cc(-c3cnc(Nc4ccccc4)nc3)ccc21
0 | > 100 | 0 | 0 | > 100 | > 100 | > 100 | 0 | CNC(=O)Cc1cccc(O[C@H]2CCc3cc(-c4cnc(Nc5ccccc5)nc4)ccc32)c1
52 | 2.1 | 71 | 0 | 1 | 0.7 | > 100 | 56 | CNC(=O)[C@H](NC(=O)Cc1cccc(O[C@H]2CCc3cc(-c4cnc(Nc5ccccc5)nc4)ccc32)c1)C1CCCCC1
0 | > 100 | 71 | 92 | > 100 | 8.8 | 16 | 0 | O[C@H]1CCc2cc(-c3cnc(Nc4ccccc4)nc3)ccc21
